Assay results taken from ChEMBL document CHEMBL1240316, “An oxidation-sensing mechanism is used by the global regulator MgrA in Staphylococcus aureus” (2006).
Values after ≈ are worked out from the molar mass of the structure shown. Active and inactive are the calls of the source. The rule behind the calls is not given here.

Tests used:
Staphylococcus aureus [1] = assay: Antimicrobial activity against Staphylococcus aureus; assay type: functional
Staphylococcus aureus [2] = assay: Antimicrobial activity against Staphylococcus aureus expressing mgrA C12S mutant gene; assay type: functional
Staphylococcus aureus [3] = assay: Antimicrobial activity against Staphylococcus aureus assessed as visible growth at 0.25 ug/ml after 24 hrs in presence of 20 uM paraquat; assay type: functional, organism-based
Staphylococcus aureus [4] = assay: Antimicrobial activity against Staphylococcus aureus assessed as visible growth at 0.45 ug/ml after 24 hrs in presence of 20 uM paraquat; assay type: functional, organism-based
Staphylococcus aureus [5] = assay: Antimicrobial activity against Staphylococcus aureus assessed as visible growth at 0.55 ug/ml after 24 hrs; assay type: functional, organism-based
Staphylococcus aureus [6] = assay: Antimicrobial activity against Staphylococcus aureus expressing mgrA C12S mutant gene assessed as visible growth at 0.35 ug/ml after 24 hrs; assay type: functional, organism-based
Staphylococcus aureus [7] = assay: Antimicrobial activity against Staphylococcus aureus expressing mgrA C12S mutant gene assessed as visible growth at 0.55 ug/ml after 24 hrs; assay type: functional, organism-based
Staphylococcus aureus [8] = assay: Antimicrobial activity against Staphylococcus aureus expressing mgrA C12S mutant gene assessed as visible growth at 0.75 ug/ml after 24 hrs; assay type: functional, organism-based
Staphylococcus aureus [9] = assay: Antimicrobial activity against Staphylococcus aureus expressing mgrA C12S mutant gene assessed as visible growth at 0.75 ug/ml after 24 hrs in presence of 20 uM paraquat; assay type: functional, organism-based
Staphylococcus aureus [10] = assay: Antimicrobial activity against Staphylococcus aureus expressing mgrA C12S mutant gene harboring pYJ335-His-mgrA C12S assessed as highest concentration at which growth was visible after 24 hrs; assay type: functional
Staphylococcus aureus [11] = assay: Antimicrobial activity against Staphylococcus aureus expressing mgrA C12S mutant gene harboring Pyj335-His-mgrA C12S assessed as highest concentration at which growth was visible after 24 hrs in presence of 20 uM paraquat; assay type: functional
Staphylococcus aureus [12] = assay: Antimicrobial activity against Staphylococcus aureus expressing mgrA C12S mutant gene harboring plasmid Pyj335 assessed as highest concentration at which growth was visible after 24 hrs; assay type: functional
Staphylococcus aureus [13] = assay: Antimicrobial activity against Staphylococcus aureus expressing mgrA C12S mutant gene harboring pYJ335 assessed as highest concentration at which growth was visible after 24 hrs in presence of 20 uM paraquat; assay type: functional
Staphylococcus aureus [14] = assay: Antimicrobial activity against Staphylococcus aureus expressing mgrAC12S mutant gene harboring plasmid Pyj335-His-mgrA C12S assessed as highest concentration at which growth was visible after 24 hrs in presence of 20 uM paraquat; assay type: functional
Staphylococcus aureus [15] = assay: Antimicrobial activity against Staphylococcus aureus expressing mgrAC12S mutant gene assessed as highest concentration at which growth was visible after 24 hrs; assay type: functional
Staphylococcus aureus [16] = assay: Antimicrobial activity against Staphylococcus aureus expressing mgrAC12S mutant gene assessed as highest concentration at which growth was visible after 24 hrs in presence of 20 uM paraquat; assay type: functional
Staphylococcus aureus [17] = assay: Antimicrobial activity against Staphylococcus aureus assessed as highest concentration at which growth was visible after 24 hrs; assay type: functional
Staphylococcus aureus [18] = assay: Antimicrobial activity against Staphylococcus aureus assessed as highest concentration at which growth was visible after 24 hrs in presence of 20 uM paraquat; assay type: functional
Staphylococcus aureus [19] = assay: Antimicrobial activity against Staphylococcus aureus expressing mgrA C12S mutant gene harboring Pyj335-His-mgrAC12S assessed as visible growth at 0.20 ug/ml after 24 hrs in presence of 100 uM hydrogen peroxide; assay type: functional, organism-based
Staphylococcus aureus [20] = assay: Antimicrobial activity against Staphylococcus aureus expressing mgrA C12S mutant gene harboring Pyj335-His-mgrA assessed as visible growth at 0.20 ug/ml after 24 hrs in presence of 100 uM hydrogen peroxide; assay type: functional, organism-based
Staphylococcus aureus [21] = assay: Antimicrobial activity against Staphylococcus aureus expressing mgrA C12S mutant gene harboring plasmid Pyj335 assessed as visible growth at 0.20 ug/ml after 24 hrs in presence of 25 uM paraquat; assay type: functional, organism-based
Staphylococcus aureus [22] = assay: Antimicrobial activity against Staphylococcus aureus expressing mgrA C12S mutant gene harboring plasmid Pyj335 assessed as visible growth at 0.65 ug/ml after 24 hrs; assay type: functional, organism-based
Staphylococcus aureus [23] = assay: Antimicrobial activity against Staphylococcus aureus expressing mgrA C12S mutant gene harboring Pyj335-His-mgrA assessed as visible growth at 0.25 ug/ml after 24 hrs; assay type: functional, organism-based
Staphylococcus aureus [24] = assay: Antimicrobial activity against Staphylococcus aureus expressing mgrA C12S mutant gene harboring Pyj335-His-mgrA assessed as visible growth at 0.45 ug/ml after 24 hrs; assay type: functional, organism-based
Staphylococcus aureus [25] = assay: Antimicrobial activity against Staphylococcus aureus expressing mgrA C12S mutant gene harboring plasmid Pyj335-His-mgrA assessed as visible growth at 0.45 ug/ml after 24 hrs in presence of 20 uM paraquat; assay type: functional, organism-based
Staphylococcus aureus [26] = assay: Antimicrobial activity against Staphylococcus aureus expressing mgrA C12S mutant gene harboring Pyj335-His-mgrA assessed as visible growth at 0.75 ug/ml after 24 hrs; assay type: functional, organism-based
Staphylococcus aureus [27] = assay: Antimicrobial activity against Staphylococcus aureus assessed as visible growth at 1.4 ug/ml after 24 hrs in presence of 20 uM paraquat; assay type: functional, organism-based
Staphylococcus aureus [28] = assay: Antimicrobial activity against Staphylococcus aureus assessed as visible growth at 1.8 ug/ml after 24 hrs; assay type: functional, organism-based
Staphylococcus aureus [29] = assay: Antimicrobial activity against Staphylococcus aureus assessed as visible growth at 2.6 ug/ml after 24 hrs; assay type: functional, organism-based
Staphylococcus aureus [30] = assay: Antimicrobial activity against Staphylococcus aureus assessed as visible growth at 2.6 ug/ml after 24 hrs in presence of 20 uM paraquat; assay type: functional, organism-based
Staphylococcus aureus [31] = assay: Antimicrobial activity against Staphylococcus aureus expressing mgrA C12S mutant gene assessed as visible growth at 1 ug/ml after 24 hrs; assay type: functional, organism-based
Staphylococcus aureus [32] = assay: Antimicrobial activity against Staphylococcus aureus expressing mgrA C12S mutant gene assessed as visible growth at 1.4 ug/ml after 24 hrs in presence of 20 uM paraquat; assay type: functional, organism-based
Staphylococcus aureus [33] = assay: Antimicrobial activity against Staphylococcus aureus expressing mgrA C12S mutant gene assessed as visible growth at 1.1 ug/ml after 24 hrs; assay type: functional, organism-based
Staphylococcus aureus [34] = assay: Antimicrobial activity against Staphylococcus aureus expressing mgrA C12S mutant gene assessed as visible growth at 1.8 ug/ml after 24 hrs in presence of 20 uM paraquat; assay type: functional, organism-based
Staphylococcus aureus [35] = assay: Antimicrobial activity against Staphylococcus aureus expressing mgrA C12S mutant gene assessed as visible growth at 2.2 ug/ml after 24 hrs in presence of 20 uM paraquat; assay type: functional, organism-based
Staphylococcus aureus [36] = assay: Antimicrobial activity against Staphylococcus aureus expressing mgrA C12S mutant gene assessed as visible growth at 2.6 ug/ml after 24 hrs in presence of 20 uM paraquat; assay type: functional, organism-based
Staphylococcus aureus [37] = assay: Antimicrobial activity against Staphylococcus aureus expressing mgrA C12S mutant gene harboring plasmid Pyj335 assessed as visible growth at 1 ug/ml after 24 hrs in presence of 20 uM paraquat; assay type: functional, organism-based
Staphylococcus aureus [38] = assay: Antimicrobial activity against Staphylococcus aureus expressing mgrA C12S mutant gene harboring plasmid Pyj335 assessed as visible growth at 2.2 ug/ml after 24 hrs; assay type: functional, organism-based
Staphylococcus aureus [39] = assay: Antimicrobial activity against Staphylococcus aureus expressing mgrA C12S mutant gene harboring plasmid Pyj335 assessed as visible growth at 2.6 ug/ml after 24 hrs in presence of 20 uM paraquat; assay type: functional, organism-based
Staphylococcus aureus [40] = assay: Antimicrobial activity against Staphylococcus aureus expressing mgrA C12S mutant gene harboring plasmid Pyj335-His-mgrA assessed as visible growth at 1.8 ug/ml after 24 hrs in presence of 20 uM paraquat; assay type: functional, organism-based
Staphylococcus aureus [41] = assay: Antimicrobial activity against Staphylococcus aureus expressing mgrA C12S mutant gene harboring Pyj335-His-mgrA assessed as visible growth at 2.6 ug/ml after 24 hrs; assay type: functional, organism-based

## O=C(O)c1cn(C2CC2)c2cc(N3CCNCC3)c(F)cc2c1=O [CIPROFLOXACIN]
Staphylococcus aureus [1]
  MIC: 0.35 µg/mL (≈ 1.06 µM)
Staphylococcus aureus [2]
  MIC: 0.7 µg/mL (≈ 2.11 µM)
Staphylococcus aureus [3]
  Activity: inactive
Staphylococcus aureus [4]
  Activity: inactive
Staphylococcus aureus [5]
  Activity: Active
Staphylococcus aureus [6]
  Activity: inactive
Staphylococcus aureus [7]
  Activity: inactive
Staphylococcus aureus [8]
  Activity: Active
Staphylococcus aureus [9]
  Activity: Active
Staphylococcus aureus [10]
  Activity: 0.35 µg/mL
Staphylococcus aureus [11]
  Activity: 0.35 µg/mL
Staphylococcus aureus [12]
  Activity: 0.65 µg/mL
Staphylococcus aureus [13]
  Activity: 0.65 µg/mL
Staphylococcus aureus [14]
  Activity: 0.55 µg/mL
Staphylococcus aureus [15]
  Activity: 0.65 µg/mL
Staphylococcus aureus [16]
  Activity: 0.65 µg/mL
Staphylococcus aureus [17]
  Activity: 0.25 µg/mL
Staphylococcus aureus [18]
  Activity: 0.45 µg/mL
Staphylococcus aureus [19]
  Activity: Active
Staphylococcus aureus [20]
  Activity: Active
Staphylococcus aureus [21]
  Activity: inactive
Staphylococcus aureus [22]
  Activity: inactive
Staphylococcus aureus [23]
  Activity: inactive
Staphylococcus aureus [24]
  Activity: Active
Staphylococcus aureus [25]
  Activity: inactive
Staphylococcus aureus [26]
  Activity: Active

## CN[C@H](CC(C)C)C(=O)N[C@H]1C(=O)N[C@@H](CC(N)=O)C(=O)N[C@H]2C(=O)N[C@H]3C(=O)N[C@H](C(=O)N[C@H](C(=O)O)c4cc(O)cc(O)c4-c4cc3ccc4O)[C@H](O)c3ccc(c(Cl)c3)Oc3cc2cc(c3O[C@@H]2O[C@H](CO)[C@@H](O)[C@H](O)[C@H]2O[C@H]2C[C@](C)(N)[C@H](O)[C@H](C)O2)Oc2ccc(cc2Cl)[C@H]1O [VANCOMYCIN]
Staphylococcus aureus [1]
  MIC: 1.2 µg/mL (≈ 0.828 µM)
Staphylococcus aureus [2]
  MIC: 2.4 µg/mL (≈ 1.66 µM)
Staphylococcus aureus [27]
  Activity: inactive
Staphylococcus aureus [28]
  Activity: Active
Staphylococcus aureus [29]
  Activity: Active
Staphylococcus aureus [30]
  Activity: Active
Staphylococcus aureus [31]
  Activity: inactive
Staphylococcus aureus [32]
  Activity: inactive
Staphylococcus aureus [10]
  Activity: 1.4 µg/mL
Staphylococcus aureus [11]
  Activity: 1.4 µg/mL
Staphylococcus aureus [12]
  Activity: 2.2 µg/mL
Staphylococcus aureus [13]
  Activity: 2.2 µg/mL
Staphylococcus aureus [14]
  Activity: 1.8 µg/mL
Staphylococcus aureus [15]
  Activity: 2.2 µg/mL
Staphylococcus aureus [16]
  Activity: 2.2 µg/mL
Staphylococcus aureus [17]
  Activity: 1 µg/mL
Staphylococcus aureus [18]
  Activity: 1.4 µg/mL
Staphylococcus aureus [33]
  Activity: inactive
Staphylococcus aureus [34]
  Activity: inactive
Staphylococcus aureus [35]
  Activity: inactive
Staphylococcus aureus [36]
  Activity: Active
Staphylococcus aureus [37]
  Activity: inactive
Staphylococcus aureus [38]
  Activity: inactive
Staphylococcus aureus [39]
  Activity: Active
Staphylococcus aureus [40]
  Activity: inactive
Staphylococcus aureus [41]
  Activity: Active
